Source: patent publication EP2114888B1, “TRICYCLIC COMPOUNDS AND THEIR USE AS GLUCOCORTICOID RECEPTOR MODULATORS” (priority 2007, dated 2008)

Legend:
[1] = test system: IL-6; test: IL-1β-stimulated IL-6 production in A549 lung epithelial cells; type: cell-based, Human; conditions: Homo sapiens, A549
Procedure: Human A549 lung epithelial cells (American Type Culture Collection, Rockville, MD) were cultured in Kaighn's F-12K medium with penicillin-streptomycin (10 U/mL) and 10% heat-inactivated fetal bovine serum (all from Invitrogen, Grand Island, NY). A549 cells were plated at a density of 30,000 cells/well in 96-well plates and incubated overnight at 37°C and with 5% CO2. The cells were serum-starved by replacing the growth medium with serum-free Kaighn's F-12K medium with penicillin-streptomycin (10 U/mL) and, again, incubating overnight at 37°C and with 5% CO2. On the third day, the medium was replaced with fresh serum-free medium and the cells were incubated with or without compound (vehicle was DMSO at 0.1 % maximum concentration) for approximately 1 hour and then stimulated with 1 ng/mL recombinant human IL-1β (R&D Systems, Minneapolis, MN) for 20 hours at 37°C and with 5% CO2. Cell supernatants were collected for determination of IL-6 levels using MSD (Meso Scale Discovery, Gaithersburg, MD) 96-well Single Spot plates as per the manufacturer's instructions. Plates were read with an MSD Sector Imager 6000. […] Percent inhibition for each compound concentration, relative to these controls, was calculated using Excel (Microsoft, Redmond, WA). IC50 values were generated using GraFit 5.0 data analysis software (Erithacus Software Ltd., Surrey, UK).

[2] = test system: TNFα; test: Ex vivo LPS-stimulated human whole blood, TNFα production; type: cell-based; conditions: mean values
Procedure: (§1) Venous blood from human donors was collected as 10 ml aliquots in tubes containing sodium heparin (BD Vacutainer from Becton Dickinson and Company, Franklin Lakes, NY). Blood was added to sterile polystyrene round bottom 96-well tissue culture plates (Corning Costar) at 100 µl/well, omitting the outside wells. Media (RPMI Medium 1640 with L-glutamine, Invitrogen Corporation, Carlsbad, CA) was added to the blood in 90 µl aliquots for a total volume of 190 µl. Outside wells were filled with 200 µl of media. Blood was placed in a humidified 37°C incubator with 5% CO2 while compounds were prepared (nearly 60 minutes).
(§2) Compounds were prepared from 10 mM stock solutions in dimethylsulfoxide (DMSO, Sigma-Aldrich). […] Final DMSO and ethanol concentrations in the assay were 0.1 % and 1.5%. The samples were gently triturated twice to mix and replaced in the incubator. LPS stock (E. coli serotype 0111:B4, Sigma-Aldrich), stored in aliquots of 100 µg/ml in RPMI at -20°C, was diluted 1/50 in RPMI to make a working stock solution. After 60 minutes of incubation, 10 µl of the prepared LPS working stock was added to the blood to a final concentration of 100 ng/ml, omitting wells to be used as negative control. The samples were again gently triturated and the plates incubated overnight for 22 hours. Following incubation, the blood was centrifuged at 1500 x g for 5 minutes and the plasma removed to either freeze at -20°C or assay for cytokine release.
(§3) IL-1β, IFNγ,IL-6, and TNFα protein levels were measured using Meso Scale assay kits (Meso Scale Discovery, Gaithersburg, MD). Reagents were allowed to come to room temperature. Meso Scale plates were blocked with 30 µl of human plasma/serum assay diluent with gentle shaking for 60 minutes at room temperature. Plates were washed 3x with wash buffer (PBS, Invitrogen Corporation, with 0.05% Tween-20, Sigma-Aldrich). Calibrators for standard curves were prepared in human plasma/serum assay diluent as a 1/5 serial dilution to achieve final concentrations ranging from 50000 pg/ml to 3.2 pg/ml. Samples and calibrators were added at 20 µl/well, then incubated at room temperature with gentle shaking for 90 minutes. Plates were again washed 3 times with wash buffer. Detection antibody was diluted in human plasma/serum antibody diluent to 1 µg/ml and added to the plate at 20 µl/well. Plates were incubated as before for 60 minutes and washed again. Read Buffer T (4x) was diluted 1:1 with mqH2O to 2 times concentration and 150 µl added to each well. Plates were analyzed on the SECTOR Imager 6000 (Meso Scale Discovery) to generate raw signal values.
(§4) Individual values were compared to positive and negative controls (vehicle treated blood with LPS and vehicle treated blood without LPS, respectively) to generate % inhibition. Triplicate values were averaged for each donor. The values for two donors were averaged (only one donor was used for IL-1β) and graphed using 4-parameter fit curves in the GraFit 5.0.11 application.

[3] = test system: IL-6; test: Ex vivo LPS-stimulated human whole blood, IL-6 production; type: cell-based; conditions: mean values
Procedure: as §1, §2, §3, §4

[4] = Caco-2 cell monolayer A→B permeability assay; conditions: human
Source text: The Caco-2 cell monolayer is an in vitro tissue culture model of the intestinal epithelium. These cells are of human colonic origin and become polarized, fully differentiated enterocytes in 2-3 weeks. Once differentiated, these cells have tight junctions and express various biochemical processes such as active efflux transporters including P-glycoprotein (P-gp). With this model, it is possible to determine the apparent permeability (Papp) of a compound across the polarized Caco-2 cell monolayer.
An A→B Assay is performed with Caco-2 cell monolayers to determine compound Papp from A chamber to B chamber. This Papp is representative of luminal (gut) to serosal (blood) compound transport across intestinal epithelium that may be seen during intestinal absorption.

[5] = in vivo; conditions: rat, po
[6] = test system: IFNγ; test: Ex vivo LPS-stimulated human whole blood, IFNγ production; type: cell-based; conditions: mean values
Procedure: as §1, §2, §3, §4

[7] = Oral absorption profile in rats
[8] = mouse, in vivo
Procedure: Blood samples were obtained after three weeks of dosing for a steady-state pharmacokinetic (PK) analysis. To assess compound effects on LPS-induced TNFα, all mice received an intraperitoneal injection of LPS (Salmonella typhosa, L-7895; Sigma-Aldrich, St. Louis,) 2.5 hr after the last dose on day 28. Mice were sacrificed 90 minutes after LPS administration. Serum samples were quantified for osteocalcin and TNFα using the multiplex assays (Linco Research, Inc, St. Charles, MO; Luminex 100, Austin, TX). Samples were diluted 1:20 and the assay was run according to manufacturer's instructions. The osteocalcin standard was purchased separately (Biomedical Technologies Inc., Stoughton, MA). Mice were fasted for 4 hours before serum was collected for TNFα, and osteocalcin levels. For each experiment, outliers were detected by calculating the number of standard deviations from the mean of the group. If the value being examined was more than 2.5 standard deviations from the mean, it was excluded from the rest of the calculations.
Due to blood volume sampling limitations in mice, AUC(0-4 hr) values were used to make pharmacodynamic comparisons.

[9] = test system: IL-1β; test: Ex vivo LPS-stimulated human whole blood, IL-1β production; type: cell-based; conditions: one donor
Procedure: as §1, §2, §3, §4

## Cc1ncccc1NC(=O)c1ccc2c(c1)CC[C@@H]1C[C@@](O)(C(F)(F)F)CC[C@@]21Cc1ccccc1 [Example 1, (4βS,7R,8αR)-4β-benzyl-7-hydroxy-N-(2-methylpyridin-3-yl)-7-(trifluoromethyl)-4β,5,6,7,8,8α,9,10-octahydrophenanthrene-2-carboxamide]
[1]
  inhibition: 86.1%
[2]; 0.457247 nM
  inhibition at 0.000457247 µM: 8.96%
[2]; 1.371742 nM
  inhibition at 0.00137174 µM: 7.87%
[2]; 4.115226 nM
  inhibition at 0.00411523 µM: -1.31%
[2]; 12.34568 nM
  inhibition at 0.0123457 µM: 9.42%
[2]; 37.03704 nM
  inhibition at 0.037037 µM: 18.7%
[2]; 111.1111 nM
  inhibition at 0.111111 µM: 27.4%
[2]; 333.3333 nM
  inhibition at 0.333333 µM: 36%
[2]; 1000 nM
  inhibition at 1 µM: 38.1%
[3]; 0.457247 nM
  inhibition at 0.000457247 µM: -1.37%
[3]; 1.371742 nM
  inhibition at 0.00137174 µM: 3.33%
[3]; 4.115226 nM
  inhibition at 0.00411523 µM: -1.07%
[3]; 12.34568 nM
  inhibition at 0.0123457 µM: -0.369%
[3]; 37.03704 nM
  inhibition at 0.037037 µM: -0.828%
[3]; 111.1111 nM
  inhibition at 0.111111 µM: 0.944%
[3]; 333.3333 nM
  inhibition at 0.333333 µM: 2.15%
[3]; 1000 nM
  inhibition at 1 µM: 8.05%
[4]
  Papp A→B: 37.5 ×10⁻⁶ cm/s
[5]
  AUC: 460 ng·h/mL
[6]; 0.457247 nM
  inhibition at 0.000457247 µM: 16.9%
[6]; 1.371742 nM
  inhibition at 0.00137174 µM: 19.8%
[6]; 4.115226 nM
  inhibition at 0.00411523 µM: -3.18%
[6]; 12.34568 nM
  inhibition at 0.0123457 µM: 26.7%
[6]; 37.03704 nM
  inhibition at 0.037037 µM: 51%
[6]; 111.1111 nM
  inhibition at 0.111111 µM: 60.6%
[6]; 333.3333 nM
  inhibition at 0.333333 µM: 73.5%
[6]; 1000 nM
  inhibition at 1 µM: 78.7%
[7]
  bioavailability F: 17%
[7]; oral
  Cmax: 130 ng/mL
[8]
  AUC(0-4 hr) values as share of the AUC(0-24 hr) values: more than 95%
[9]; 0.457247 nM
  inhibition at 0.000457247 µM: 23.4%
[9]; 1.371742 nM
  inhibition at 0.00137174 µM: 22.4%
[9]; 4.115226 nM
  inhibition at 0.00411523 µM: 11.2%
[9]; 12.34568 nM
  inhibition at 0.0123457 µM: 21.5%
[9]; 37.03704 nM
  inhibition at 0.037037 µM: 38.2%
[9]; 111.1111 nM
  inhibition at 0.111111 µM: 39.7%
[9]; 333.3333 nM
  inhibition at 0.333333 µM: 57.8%
[9]; 1000 nM
  inhibition at 1 µM: 53.5%
